# Measured values as given in patent US12496287B2, “Compositions and methods for treating macrophage activation syndrome” (THE CHILDREN'S HOSPITAL OF PHILADELPHIA, priority 2019, dated 2025).
# Counter-ions that a name gives are not always drawn.
# Assays:
# [1] = low dose CO (100-125 ppm); patients with idiopathic pulmonary fibrosis or COPD; cited from earlier work
# [2] = biological target: T1, HO-1 (Mus musculus, UniProt P14901); experiment: Cytokines in supernatants of CpG-stimulated BMDMs treated with ZnPP and/or CORM2 (ELISA); assay type: cell-based
# T1 construct: endogenous in cells; host or cells: mouse bone marrow derived macrophages (BMDM)
# T1 sequence (P14901 1-289): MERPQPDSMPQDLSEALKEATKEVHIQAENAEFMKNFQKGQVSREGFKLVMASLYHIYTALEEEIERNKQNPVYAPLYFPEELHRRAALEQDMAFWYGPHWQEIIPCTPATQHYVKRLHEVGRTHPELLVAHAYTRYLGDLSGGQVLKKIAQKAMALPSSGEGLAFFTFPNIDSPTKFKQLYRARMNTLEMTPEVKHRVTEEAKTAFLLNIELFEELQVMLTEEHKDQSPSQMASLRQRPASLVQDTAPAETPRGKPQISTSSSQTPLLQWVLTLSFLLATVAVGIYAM
# Method: Bone marrow (BM) was extracted from the hind limbs of mice and filtered over a 70-μm strainer to obtain a single cell suspension, followed by RBC lysis. Bone marrow derived macrophages (BMDM) were derived by culture in M-CSF-enriched media of L929 cells. RAW264.7 cells were obtained from ATCC (Manassas, VA). Class B CpG1826 oligonucleotide was synthesized by Integrated DNA Technologies (Coralville, IA). Macrophages were treated with CpG (1 μg/ml) for 18 to 20 hours for cytokine analysis in cell supernatant, and for 0 to 2 hours for analysis of protein expression level by Western blot treated as indicated.
# (§1) TLR9 activation induced cytokines from cells supernatants and serum were measured by using the ELISA kits from BD OptEIA™ (Cat nos. IL-12: 555256, IL-10: 555252, TNFα: 555268 and IL-6: 555240; Franklin Lakes, NJ).
# [3] = tested on: TLR9-MAS; experiment: TLR9-MAS in HMOX1^WT and HMOX1^fl/fl mice, MMF treatment; assay type: in vivo, mouse
# Text: C57BL/6 (WT) and LysM-Cre mice were purchased from The Jackson Laboratory (Bar Harbor, ME). HMOX1^fl/fl mice were crossbred with LysM-Cre mice and genotyped regularly to obtain mice with deletion of the HO-1 gene in myeloid lineage and are designated as: HMOX1^WT (intact HO-1), HMOX1^WT/fl (x LysM-cre, HO-1-haplodeficient,), and HMOX1^fl/fl (x LysM-Cre, complete HO-1-deficiency).
# (§2) MAS was induced by repeated activation of TLR9 as described (Behrens, et al. (2011) J. Clin. Invest., 121(6):2264-77; Weaver, et al. (2016) Proc. Natl. Acad. Sci., 113(39):10944-9). Briefly, 8-week old mice were injected with five doses of PBS or 50 μg of CpG1826 intraperitoneally every other day for 9 days, while MMF (cat no: 4511, TOCRIS (Bristol, UK)) in DMSO was injected at 45 mg/Kg body weight based on standard dosing used in other murine studies (Cho, et al. (2015) J. Neuroinflammation 12:239; Yao, et al. (2016) Transl. Stroke Res., 7(6):535-47), every day once in the morning and once in the evening. The control group received DMSO instead of MMF. On day-10 mice were euthanized 24 hours after the last MMF injection, bled terminally to collect blood for complete blood count (CBC) and differential count, and serum for cytokine analysis by ELISA. Spleens and livers were harvested and were formalin fixed followed by paraffin embedment for tissue sectioning and slide preparation for histology and immunohistochemistry (IHC). To obtain single suspension of spleen leukocytes, spleens at 37° C. were disrupted and incubated in the presence of DNAase and collagenase, followed by filtering over 70-μm strainers and RBC lysis. The cells were counted and then adhered for 2 hours on petri dishes to obtain plastic adherent macrophages.
# Slides from paraffin-embedded tissue sections were stained with hematoxylin and eosin or were immune-stained for HO-1 (cat no. ADI-SPA-896, Enzo), followed by nuclear stain using prolong gold antifade reagent with Dapi (P36931, Invitrogen (Carlsbad, CA)). Images were acquired on an Eclipse 90i microscope (Nikon (Melville, NY)) using NIS-ELEMENTS software.
# as §1
# [4] = tested on: Nrf2/HO-1; experiment: MMF induction of Nrf2 and HO-1 in macrophages of injected mice (Western blot); assay type: in vivo, mouse
# Method: as §2, with “On day-10 mice were euthanized 24 hours after the last MMF injection, bled terminally to collect blood for complete blood count (CBC) and differential count, and serum for cytokine analysis by ELISA.” left out
# Protein samples (10-12 μg) were resolved by SDS-PAGE on 4-12% Bis-Tris gels (Invitrogen), electrotransferred to nitrocellulose membranes (Cat no. 10484060, Bio-Rad (Hercules, CA)), and assessed for the immunosignal of proteins using the antibodies against HO-1 (cat no. ADI-SPA-896, Enzo (Farmingdale, NY)), Nrf2 (Cat no. 12721, Cell Signaling (Danvers, MA)), Erk (Cat no. 4695, Cell signaling), pErk (Cat no. 4379, Cell Signaling), Cyclophilin B (CyPB, Cat no. PA1-027A, ThermoFisher Scientific), β tubulin (Cat no. 2146, Cell Signaling), β actin (Cat No. 66009-1-Ig, Proteintech (Rosemont, IL)), Calnexin (Cat no. ab22595, abcam (Cambridge, UK) and Histone 3 (Cat no. 4499, Cell Signaling). Fluorescence tagged respective secondary antibodies obtained from Li-COR (Lincoln, Neb.)—Goat-anti-Rabbit-antibody (IRDye® 800CW), or Donkey-anti-mouse-antibody (IRDye® 800CW) or Donkey anti-Mouse IgG (IRDye® 680RD) were then used. […]
# [5] = tested on: TLR9-MAS murine model; experiment: TLR9-MAS murine model (repeated CpG), MMF treatment, C57BL/6 mice; assay type: in vivo, mouse
# Method: as §2, with “macrophages. TLR9 activation induced cytokines from cells supernatants and serum were measured by using the ELISA kits from BD OptEIA™ (Cat nos. IL-12: 555256, IL-10: 555252, TNFα: 555268 and IL-6: 555240; Franklin Lakes, NJ).” for “macrophages.”
# [6] = tested on: HO-1; experiment: Splenic HO-1 expression in vivo after repeated CpG treatment (IHC, Western blot); set-up: species or system mouse; settings: IFNγ alone, intraperitoneally, IFNγ-/- mice
# Method: as §2, with “macrophages. […]” for “macrophages.”
# [7] = spleen plastic adherent macrophages, MMF i.p. every 12 hours, 3 doses, 4 hours after last dose
# [8] = day 10, MMF twice a day, CpG every other day
molecule,measurement,setting,value
"[C-]#[O+] [CO, carbon monoxide]",tolerability,[1],tolerated
"[C-]#[O+].[C-]#[O+].[C-]#[O+].[C-]#[O+].[C-]#[O+].[C-]#[O+].[Cl][Ru][Cl].[Cl][Ru][Cl] [CORM2, carbon monoxide-releasing molecule [CORM] 2]",IL-10,[2]; CORM2 in BMDM not inhibited by ZnPP or genetically sufficient for HO-1,no additional effect
same,IL-10,[2]; CORM2 in HMOX1^fl/fl BMDMs,rescue
same,IL-10 levels,"[2]; CORM2 in ZnPP treated BMDMs, CpG 1 μg/ml",restored IL-10 levels to normal
"COC(=O)/C=C/C(=O)O [MMF, monomethyl fumarate]",serum IL-10 elevation,[3]; CpG treated HMOX1^WT mice,3 fold
same,serum IL-10 elevation effect,[3]; CpG treated HMOX1^fl/fl mice,completely lost
same,serum IFNγ,[3]; CpG treated HMOX1 mice,unaffected
same,serum IL-12,"[3]; CpG treated HMOX1 mice, HO-1 independent",slightly reduced
same,recovery from anemia (RBC),[3]; HMOX1^WT mice,almost complete recovery
same,recovery from thrombocytopenia (platelets),[3]; HMOX1^WT mice,almost complete recovery
same,hepatosplenomegaly,[3]; HMOX1^fl/fl mice,partially protected
same,recovery from anemia (RBC),[3]; HMOX1^fl/fl mice,partial recovery
same,recovery from thrombocytopenia (platelets),[3]; HMOX1^fl/fl mice,partial recovery
same,lobular inflammatory score (liver),[3]; both WT and HMOX1^fl/fl mice,reduce
same,portal inflammatory score (liver),[3]; both WT and HMOX1^fl/fl mice,reduce
same,histologic evidence of endothelial activation,[3]; independent of mouse genotype,reduce
same,HO-1 expression in splenic and peritoneal macrophages,[4]; MMF treatment,increased
same,HO-1 immunosignal relative to DMSO control,[4]; [7],significantly increased
same,Nrf2 immunosignal relative to DMSO control,[4]; [7],significantly increased
same,cellularity in spleen,[5]; MMF + CpG,reduced cellularity
same,organomegaly of liver,[5]; MMF + CpG,reduced
same,organomegaly of spleen,[5]; MMF + CpG,reduced
same,serum IL-10,"[5]; day 10, MMF 45 mg/Kg twice a day, CpG every other day",significantly higher
same,erythrocyte count in blood,"[5]; day 10, MMF + CpG",corrected
same,platelet count in blood,"[5]; day 10, MMF + CpG",corrected
same,serum IFNγ,[5]; [8],drop
same,serum IL-12,[5]; [8],drop
"C=CC1=C(C)c2cc3[n-]c(cc4nc(cc5[n-]c(cc1n2)c(C)c5C=C)C(C)=C4CCC(=O)O)c(CCC(=O)O)c3C.[Zn+2] [ZnPP, zinc protoporphyrin]",IL-6 in response to CpG,"[2]; ZnPP 3 μM, BMDMs",increased levels
same,TNFα in response to CpG,"[2]; ZnPP 3 μM, BMDMs",increased levels
same,production of IL-10,"[2]; ZnPP 3 μM, BMDMs stimulated with CpG",substantially reduced
same,IL-10,"[2]; ZnPP, CpG-treated HMOX1^WT BMDM",blocked
same,residual IL-10,"[2]; ZnPP, CpG-treated HMOX1^fl/fl BMDM",without showing any effect
"IFNγ: interferon gamma added back intraperitoneally to IFNγ-/- mice (protein, UniProt P01580 23-155, looked up) Interferon gamma: HGTVIESLESLNNYFNSSGIDVEEKSLFLDIWRNWQKDGDMKILQSQIISFYLRLFEVLKDNQAISNNISVIESHLITTFFSNSKAKKDAFMSIAKFEVNNPQVQRQAFNELIRVVHQLLPESSLRKRKRSRC",HO-1 induction in spleen,[6],did not induce HO-1
